For the experiment, the system named is Mus musculus. In words: Percentage increase of mice ear thickness at 10 ug/kg. It is filed as functional.

The structures appear in SMILES notation.

`O=c1cc(-c2ccccc2)oc2cc3c(c(O)c12)[C@@H]1O[C@H](CO)[C@@H](O)[C@H](O)[C@@H]1O3` yielded an Increase of 59%.

As to `O=c1cc(-c2ccc(O)cc2)oc2cc3c(c(O)c12)[C@@H]1O[C@H](CO)[C@@H](O)[C@H](O)[C@@H]1O3`, the Increase was found to be 30%.

These data come from ChEMBL document CHEMBL1146647, “First total synthesis of structurally unique flavonoids and their strong anti-inflammatory effect” (2004).
